Data taken from ChEMBL document CHEMBL1140379, “Extraction and visualization of potential pharmacophore points using support vector machines: application to ligand-based virtual screening for COX-2 inhibitors” (J Med Chem, 2005).

Molecular target: T1, Prostaglandin G/H synthase 2 (Homo sapiens, UniProt P35354)
T1 sequence (P35354 whole entry): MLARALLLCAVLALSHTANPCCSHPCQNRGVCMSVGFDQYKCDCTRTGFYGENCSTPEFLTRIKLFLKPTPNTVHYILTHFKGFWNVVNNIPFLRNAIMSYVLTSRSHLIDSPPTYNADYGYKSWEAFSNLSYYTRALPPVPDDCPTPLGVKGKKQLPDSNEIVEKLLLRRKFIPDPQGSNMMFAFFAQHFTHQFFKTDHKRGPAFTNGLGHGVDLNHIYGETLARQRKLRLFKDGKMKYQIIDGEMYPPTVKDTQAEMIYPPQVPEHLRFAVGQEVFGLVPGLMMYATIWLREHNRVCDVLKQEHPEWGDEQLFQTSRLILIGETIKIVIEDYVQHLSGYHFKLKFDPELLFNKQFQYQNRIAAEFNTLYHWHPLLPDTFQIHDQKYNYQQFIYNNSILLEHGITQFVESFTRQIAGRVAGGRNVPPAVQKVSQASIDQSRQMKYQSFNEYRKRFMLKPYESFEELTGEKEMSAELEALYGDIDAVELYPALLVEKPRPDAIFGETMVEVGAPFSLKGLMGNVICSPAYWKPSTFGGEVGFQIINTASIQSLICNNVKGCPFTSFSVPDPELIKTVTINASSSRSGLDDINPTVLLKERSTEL
Assay: Inhibitory concentration against COX-2 upon incubation for 15 minutes at 37 degree C

`COc1ccccc1-n1c(-c2ccc(S(N)(=O)=O)cc2)nc2ccccc21` was tested, and the IC50 was 8 µM.

With `NS(=O)(=O)c1ccc(-c2nc3ccccc3n2-c2ccc(Cl)cc2)cc1` the IC50 was 0.2 µM.
